Data reported in paper PMC8234864, “Early Effects of the Soluble Amyloid β25-35 Peptide in Rat Cortical Neurons: Modulation of Signal Transduction Mediated by Adenosine and Group I Metabotropic Glutamate Receptors” (International Journal of Molecular Sciences, 2021).
Where “and” joins values, the source holds several entries; their conditions need not be identical. Equal entries are not always repeated. Where no end group is shown, it is not given here.

Columns and labels:
Format in all cases: cell-based, rat
Caspase 3 = Caspase 3 activity assay; conditions: 25 µM Aβ25-35 exposure
Method: A commercial kit (Molecular Probes, Barcelona, Spain) was used to determine Caspase 3 activity following the manufacturer’s instructions. Briefly, cortical neurons growth in 24-well plates were exposed to Aβ25-35 or maintained under control conditions. Cells were lysed and lysates centrifuged to clear cell debris. Then, 50 µL of test buffer containing Z-DEVD-Rhodamine 110, DTT, EDTA, PIPES, and CHAPS was added to the supernatants obtained in the proportions indicated by the manufacturer. After 30 min of incubation at room temperature, the […] of each sample was measured on a plate reader (excitation/emission 496/520 nm).

mGluR1 = test: Extracellular immunostaining of mGluR1 in non-permeabilized neurons; conditions: 25 µM, 24 h, whole-cell immunostaining
Method: The quantitative analysis of the levels of Group I mGluR and mGluR2,3 at the plasma membrane was performed with extracellular targeted polyclonal antibodies (mGluR1, mGluR5 and mGluR2,3, Alomone Labs, Jerusalem, Israel), as previously described with minor modifications. Briefly, after 2 weeks in culture, the culture medium was removed and cells washed with Locke Buffer (LB, pH 7.4). Cells were then fixed with 4% paraformaldehyde for 10 min at room temperature and washed with three 10-min intervals with LB.
Nonspecific staining was suppressed by blocking with 3% normal goat serum in LB for 60 min. […]
To evaluate the degree of fluorescence intensity in cortical neurons, fluorescence was measured to estimate the protein expression in the different experimental conditions analyzed. Images (448.6 µm × 335.08 µm) obtained with a digital camera (Leica DFC350FX R2), attached to a Leica DMI6000B (Leica Microsystems, Wetzlar, Germany) fluorescent microscope, were used for quantification (20x HCX PL FLUOTAR 0.4 dry objective). […] Fluorescence intensity was estimated by averaging mean grey values. […] Data were normalized to the total number of cells in the analyzed fields. The mean fluorescence background, calculated in the unstained regions between neurons, was subtracted from the fluorescence intensity of each data point. […]

[1] = tested on: Group I mGluR/PLC signalling pathway; test: Phospholipase C activity (IP3 accumulation), basal and DHPG-stimulated
Method: This method was previously reported and is divided into two well-defined steps: IP3 accumulation: culture medium was discharged, and cells were washed twice with DMEM containing 20 mM HEPES, pH 7.4. After 20 min at 37 °C, different ligands were added to cells for 10 min at 37 °C to analyse their effect on PLC activity in a final reaction volume of 300 μL. The enzymatic reaction was stopped and cells lysed by adding 50 μL 2.8 M perchloric acid and placing plates on ice for 30 min. The medium was neutralized with 70 μ[…] Tris-HCl, 2 M KOH, and 60 mM EGTA, transferred to Eppendorf tubes and centrifuged at 12,000× g for 10 min. The supernatant was then collected to determine the IP3 level. IP3 level determination: IP3 levels in cells were determined as previously reported by Palmer and modified by […] [100]. Incubation of [^3H]IP3 (0.2 pmol; 3000-5000 cpm) in assay buffer (100 mM Tris-HCl, 4 mM EDTA, 4 mM EGTA, 4 mg/mL BSA, pH 9.0), binding protein (500-600 μg), and 25-50 μL of supernatant obtained from IP3 accumulation assay was carried out. Samples were incubated at 4 °C for 60 min and centrifuged at 12,000× g for 10 min. Pellets were suspended in 100 μL 0.2% SDS and transferred to scintillation vials to measure radioactivity. A standard curve was made with known [^3H]IP3 concentrations (0.25-10 μM). Nonspecific binding was determined in the presence of 10 μM unlabeled IP3. Binding protein was obtained from bovine suprarenal capsules according to Palmer's protocol.

caspase 3 activity (Caspase 3): increase
decrease in DHPG-stimulated PLC activity ([1]; 25 µM, 24 h, 30 µM DHPG for 10 min): 13%
Sequence: GSNKGAIIGLM [Aβ25-35]
mGluR1 density at the membrane level, increase over control value (mGluR1): more than 7 fold
basal PLC activity ([1]; neurons exposed to 25 µM for 24 h, unstimulated, absence of DHPG): 17.61 ± 4.85 pmol/mg/min and 17.6 ± 4.8 pmol/mg/min
